Data taken from patent US10092643B2, “Prophylactic and immunomodulatory compositions and uses” (Kherion Technology Limited, priority 2005, dated 2018).

What was measured:
Mtb specific T cells = experiment: expansion of Mtb specific T cells after S1P administration to TB-infected macrophages; type: cell-based; settings: S1P administered to TB-infected macrophages
[1] = tested on: macrophages and epithelial cells; experiment: S1P given before infection: control of infection by macrophages and epithelial cells; type: cell-based; settings: S1P administered before infection
[2] = tested on: macrophagic phospholipase D (PLD); settings: cited from earlier work
Mtb-infected macrophages = settings: cited from earlier work
[3] = tested on: Mycobacterium tuberculosis; settings: human macrophages; concentration close to physiologic ones; cited from earlier work
[4] = tested on: Mycobacterium tuberculosis; settings: MTB-infected mice, intravenously injected; cited from earlier work
dendritic cells = settings: administered to dendritic cells in vitro; cited from earlier work
T cells = settings: Jin et al., Blood 2003; cited from earlier work
[5] = safety of S1P administration in mice; settings: levels at which immunoregulatory activity can be measured
M. tuberculosis (Erdman) = experiment: S1P as adjuvant for BCG vaccine in mice (immunogenicity and protection protocol); settings: protocol to be followed

In the case of CCCCCCCCCCCCC/C=C/C(O)C(N)COP(=O)(O)O [S1P, D-erythro-sphingosine 1-phosphate], the “expansion of Mtb specific T cells” value (Mtb specific T cells) is listed as “induces expansion of Mtb specific T cells”, the “capacity to control an infection” value [1] is listed as “increases the capacity of macrophages and epithelial cells to control an infection” and the “PLD activity in macrophages” value [2] is listed as “increase PLD activity in macrophages”. For the same molecule, the phagolysosomal fusion (Mtb-infected macrophages) was “promote phagolysosomal fusion”, the “antimicrobial activity / intracellular killing of TB” value [3] was “induce antimicrobial activity in human macrophages leading to the intracellular killing of TB” and the mycobacterial growth [4] was “significantly reduced”. The pulmonary tissue damage [4] was “significantly reduced”, the “secretion of cytokine profiles (Th1/Th2 responses)” value (dendritic cells) was “alter the secretion of cytokine profiles” and the “activation and proliferation of T cells” value (T cells) was “inhibit activation and proliferation of T cells”. For the same molecule, the safety [5] was “appears safe” and the “properties as a vaccine adjuvant” value (M. tuberculosis (Erdman)) was “novel, unexpected and advantageous properties as a vaccine adjuvant”.
